# Data published in patent publication US8524707B2, “Bicyclic pyrazoles as protein kinase inhibitors” (Nerviano Medical Sciences S.r.l., priority 2008, dated 2013).
# Where two headings read alike, the source gives them in different places.
# Legend:
# Assay type in all cases: cell-based
# [1] = test system: human melanoma cells A375 (with a mutated B-RAF); assay: In vitro cell proliferation assay, A375; settings: A-375, 72 hours, cellular ATP monitoring
# Procedure: (§1) Exponentially growing human melanoma cells A375 (with a mutated B-RAF) and human melanoma cells Mewo (with wild-type B-Raf) were seeded and incubated at 37° C. in a humidified 5% CO2 atmosphere. After 24 hours, scalar doses of the compound were added to the medium and cells oncubated for 72 hours. At the end of treatment, cells were washed and counted. Cell number was determined by a cellular adenosine triphosphate monitoring system. Cell proliferation was compared to control cells and the concentration inhibiting cell growth by 50% was calculated.
# [2] = test system: human melanoma cells Mewo (with wild-type B-Raf); assay: In vitro cell proliferation assay, Mewo; settings: 72 hours, cellular ATP monitoring
# Procedure: as §1
# [3] = test system: p-MAPK (T202/Y204) in A375 human melanoma cells, having a mutated B-RAF; assay: p-MAPK (T202/Y204) ArrayScan assay
# Procedure: A375 human melanoma cells, having a mutated B-RAF, are seeded in 384-well poly-lysine coated plates (Matrix) at a density of 1000 cells/well with appropriate medium supplemented with 10% FCS and incubated for 16-24 hours. Cells are treated for 1.5 or 2 hours with increasing doses of compounds (starting dose 10 μM, dilution factor 2.5). At the end of the treatment cells are fixed with p-formaldehyde 3.7% for 15-30 min, then washed twice with D-PBS ([…]) and permeabilized with D-PBS containing 0.1% Triton X-100 and 1% BSA (Sigma-Aldrich) for 15 minutes at room temperature (staining solution). […] After removal of antibody solution, the anti-mouse Cy™2-conjugated (Green) secondary antibody (Amersham) diluted 1:500 in staining solution containing […] DAPI is added. The plate is incubated for 1 hour at 37° C., washed twice and red with Cellomics' ArrayScan VTI (4 fields/well, CytoNucTrans algorithm).
# The parameter “MEAN_RingAvgIntenCh2”, which measures the mean cytoplasmatic fluorescence intensity associated to p-MAPK staining, is reported as the final result.
# [4] = A-375, A375 cells treated 1.5 or 2 hours, p-MAPK staining, MEAN_RingAvgIntenCh2, read-out: Array Scan A375 IC50
# [5] = A-375, read-out: Array Scan A375 IC50
smiles,measurement,setting,value
"O=C(Nc1ccc(Cl)cc1)Nc1cccc(-c2nn3c(c2-c2ccncc2)SCCC3)c1 [compound 1, 1-(4-chloro-phenyl)-3-[3-(3-pyridin-4-yl-6,7-dihydro-5H-pyrazolo[5,1-b][1,3]thiazin-2-yl)-phenyl]-urea]",IC50,[1],2480 nM
same,IC50,[2],3590 nM
same,IC50,[3]; [4],7370 nM
"Cc1ccc(NC(=O)Nc2cccc(-c3nn4c(c3-c3ccncc3)SCCC4)c2)cc1 [compound 2, 1-[3-(3-pyridin-4-yl-6,7-dihydro-5H-pyrazolo[5,1-b][1,3]thiazin-2-yl)-phenyl]-3-p-tolyl-urea]",IC50,[1],3690 nM
same,IC50,[2],7250 nM
same,IC50,[3]; [4],5570 nM
"O=C(Nc1ccc(C(F)(F)F)cc1)Nc1cccc(-c2nn3c(c2-c2ccncc2)SCCC3)c1 [compound 3, 1-[3-(3-pyridin-4-yl-6,7-dihydro-5H-pyrazolo[5,1-b][1,3]thiazin-2-yl)-phenyl]-3-(4-trifluoromethyl-phenyl)-urea]",IC50,[1],910 nM
same,IC50,[2],2540 nM
same,IC50,[3]; [4],770 nM
"O=S(=O)(Nc1cccc(-c2nn3c(c2-c2ccncc2)SCCC3)c1)c1cccc(F)c1 [compound 4, 3-fluoro-N-[3-(3-pyridin-4-yl-6,7-dihydro-5H-pyrazolo[5,1-b][1,3]thiazin-2-yl)-phenyl]-benzenesulfonamide]",IC50,[1],7510 nM
same,IC50,[2],> 10000 nM
same,IC50,[3]; [4],1620 nM
"O=C(Nc1ccc(C(F)(F)F)cc1)Nc1cccc(-c2nn3c(c2-c2ccncc2)SCC3)c1 [compound 5, 1-[3-(7-pyridin-4-yl-2,3-dihydro-pyrazolo[5,1-b]thiazol-6-yl)-phenyl]-3-(4-trifluoromethyl-phenyl)urea]",IC50,[1],430 nM
same,IC50,[2],2630 nM
same,IC50,[3]; [5],600 nM
"O=C(Nc1ccc(Cl)cc1)Nc1cccc(-c2nn3c(c2-c2ccncc2)SCC3)c1 [compound 6, 1-(4-chloro-phenyl)-3-[3-(7-pyridin-4-yl-2,3-dihydro-pyrazolo[5,1-b]thiazol-6-yl)-phenyl]-urea]",IC50,[1],2330 nM
same,IC50,[2],5950 nM
same,IC50,[3]; [4],1380 nM
"Oc1cccc(-c2nn3c(c2-c2ccncc2)SCC3)c1 [compound 7, 3-(7-pyridin-4-yl-2,3-dihydro-pyrazolo[5,1-b]thiazol-6-yl)-phenol]",IC50,[1],950 nM
same,IC50,[2],> 10000 nM
same,IC50,[3]; [4],750 nM
"Oc1cccc(-c2nn3c(c2-c2ccncc2)SCCC3)c1 [compound 8, 3-(3-pyridin-4-yl-6,7-dihydro-5H-pyrazolo[5,1-b][1,3]thiazin-2-yl)-phenol]",IC50,[1],1510 nM
same,IC50,[2],> 10000 nM
same,IC50,[3]; [5],2040 nM
"O=S(=O)(Nc1cccc(-c2nn3c(c2-c2ccncc2)SCCC3)c1)c1cc(F)ccc1F [compound 9, 2,5-difluoro-N-[3-(3-pyridin-4-yl-6,7-dihydro-5H-pyrazolo[5,1-b][1,3]thiazin-2-yl)-phenyl]-benzenesulfonamide]",IC50,[1],1280 nM
same,IC50,[2],4290 nM
same,IC50,[3]; [4],460 nM
"O=S1(=O)CCn2nc(-c3cccc(O)c3)c(-c3ccncc3)c21 [compound 10, 3-(1,1-dioxo-7-pyridin-4-yl-2,3-dihydro-pyrazolo[5,1-b]thiazol-6-yl)-phenol]",IC50,[1],1980 nM
same,IC50,[2],> 10000 nM
same,IC50,[3]; [4],620 nM
"O=S(=O)(Nc1cccc(-c2nn3c(c2-c2ccncc2)SCC3)c1)c1cc(F)ccc1F [compound 11, 2,5-difluoro-N-[3-(7-pyridin-4-yl-2,3-dihydro-pyrazolo[5,1-b]thiazol-6-yl)-phenyl]-benzenesulfonamide]",IC50,[1],660 nM
same,IC50,[2],> 10000 nM
same,IC50,[3]; [4],260 nM
"O=C(Cc1ccc(C(F)(F)F)cc1)Nc1cccc(-c2nn3c(c2-c2ccncc2)SCCC3)c1 [compound 12, N-[3-(3-pyridin-4-yl-6,7-dihydro-5H-pyrazolo[5,1-b][1,3]thiazin-2-yl)-phenyl]-2-(4-trifluoromethyl-phenyl)-acetamide]",IC50,[1],3880 nM
same,IC50,[2],> 10000 nM
same,IC50,[3]; [4],6390 nM
"O=S(=O)(Nc1cccc(-c2nn3c(c2-c2ccncc2)SCCC3)c1)c1ccco1 [compound 13, furan-2-sulfonic acid [3-(3-pyridin-4-yl-6,7-dihydro-5H-pyrazolo[5,1-b][1,3]thiazin-2-yl)-phenyl]-amide]",IC50,[1],9280 nM
same,IC50,[2],> 10000 nM
same,IC50,[3]; [4],3030 nM
"O=S(=O)(Nc1cccc(-c2nn3c(c2-c2ccncc2)SCCC3)c1)c1ccsc1 [compound 14, thiophene-3-sulfonic acid [3-(3-pyridin-4-yl-6,7-dihydro-5H-pyrazolo[5,1-b][1,3]-thiazin-2-yl)-phenyl]-amide]",IC50,[1],7070 nM
same,IC50,[2],> 10000 nM
same,IC50,[3]; [4],4690 nM
"CC(C)(C)c1ccc(NC(=O)c2cccc(-c3nn4c(c3-c3ccncc3)SCC4)c2)cc1 [compound 15, N-(4-tert-butyl-phenyl)-3-(7-pyridin-4-yl-2,3-dihydro-pyrazolo[5,1-b]thiazol-6-yl)-benzamide]",IC50,[1],680 nM
same,IC50,[2],3090 nM
same,IC50,[3]; [4],480 nM
"NC(=O)c1csc2c(-c3ccncc3)c(-c3cccc(NS(=O)(=O)c4cc(F)ccc4F)c3)nn12 [compound 17, 6-[3-(2,5-difluoro-benzenesulfonylamino)-phenyl]-7-pyridin-4-yl-pyrazolo[5,1-b]thiazole-3-carboxylic acid amide]",IC50,[1],1340 nM
same,IC50,[2],> 10000 nM
same,IC50,[3]; [4],1170 nM
"CC(C)(C)c1ccc(NC(=O)Nc2cccc(-c3nn4c(c3-c3ccncc3)SCC4)c2)cc1 [compound 18, 1-(4-tert-butyl-phenyl)-3-[3-(7-pyridin-4-yl-2,3-dihydro-pyrazolo[5,1-b]thiazol-6-yl)-phenyl]-urea]",IC50,[1],2160 nM
same,IC50,[2],> 10000 nM
same,IC50,[3]; [4],2290 nM
"O=C(Nc1ccc(C(F)(F)F)cc1)Nc1cccc(-c2nn3c(c2-c2ccncc2)[S+]([O-])CC3)c1 (stereo not drawn) [compound 19, 1-[3-(1-oxo-7-pyridin-4-yl-2,3-dihydro-pyrazolo[5,1-b]thiazol-6-yl)-phenyl]-3-(4-trifluoromethyl-phenyl)-urea]",IC50,[1],7680 nM
same,IC50,[2],> 10000 nM
same,IC50,[3]; [4],4690 nM
"Oc1cccc(-c2nn3ccsc3c2-c2ccncc2)c1 [compound 20, 3-(7-pyridin-4-yl-pyrazolo[5,1-b]thiazol-6-yl)-phenol]",IC50,[1],1170 nM
same,IC50,[2],> 10000 nM
same,IC50,[3]; [4],360 nM
"O=S(=O)(Nc1cccc(-c2nn3ccsc3c2-c2ccncc2)c1)c1cc(F)ccc1F [compound 21, 2,5-difluoro-N-[3-(7-pyridin-4-yl-pyrazolo[5,1-b]thiazol-6-yl)-phenyl]-benzenesulfonamide]",IC50,[1],3130 nM
same,IC50,[2],> 10000 nM
same,IC50,[3]; [4],210 nM
"O=C(Nc1ccc(C(F)(F)F)cc1)Nc1cccc(-c2nn3ccsc3c2-c2ccncc2)c1 [compound 22, 1-[3-(7-pyridin-4-yl-pyrazolo[5,1-b]thiazol-6-yl)-phenyl]-3-(4-trifluoromethyl-phenyl)-urea]",IC50,[1],1030 nM
same,IC50,[2],5410 nM
same,IC50,[3]; [4],440 nM
"O=S(=O)(Nc1ccc(F)c(-c2nn3c(c2-c2ccncc2)SCC3)c1F)c1cc(F)ccc1F [compound 23, N-[2,4-difluoro-3-(7-pyridin-4-yl-2,3-dihydro-pyrazolo[5,1-b]thiazol-6-yl)-phenyl]-2,5-difluoro-benzenesulfonamide]",IC50,[1],290 nM
same,IC50,[2],> 10000 nM
same,IC50,[3]; [4],20 nM
"O=C(Nc1ccc(C(F)(F)F)cc1)c1cccc(-c2nn3c(c2-c2ccncc2)SCC3)c1 [compound 24, 3-(7-pyridin-4-yl-2,3-dihydro-pyrazolo[5,1-b]thiazol-6-yl)-N-(4-trifluoromethyl-phenyl)-benzamide]",IC50,[1],1230 nM
same,IC50,[2],5090 nM
same,IC50,[3]; [4],1460 nM
